From patent CN101659655A, “一类吡唑酰胺衍生物及其应用” (Nankai University, priority 2009, dated 2010)

Columns and labels:
Format in all cases: in vivo
[1] = test system: oriental armyworm, Mythimna separata Walker (东方粘虫); test: bioactivity evaluation against oriental armyworm, leaf dip; details: in Zea mays, foliar, 72 h, read-out: mortality grade
[2] = test system: diamondback moth, Plutella xylostella (L.) (小菜蛾); test: bioactivity evaluation against diamondback moth, leaf dip; details: in Brassica oleracea, foliar, 72 h, read-out: mortality grade
[3] = test system: beet armyworm, Laphygma exigua Hubner (甜菜夜蛾); test: bioactivity evaluation against beet armyworm, leaf dip; details: Spodoptera exigua, in Brassica oleracea, foliar, 72 h, read-out: mortality grade

Measured: mortality at 500 ppm

Cc1cc(Cl)cc(C(=O)NC2CC2)c1NC(=O)c1cc(OCC(F)(F)F)nn1-c1ncccc1Cl [compound 18]
90 to 100%: all assays above
